In patent US20180344680A1, “COMPOSITIONS AND METHODS FOR TREATMENT, AMELIORATION, AND PREVENTION OF DIABETES-RELATED SKIN ULCERS” (THE ARIZONA BOARD OF REGENTS ON BEHALF OF THE UNIVERSITY OF …, priority 2015, published 2018):

Key:
[1] = Body weight and blood glucose in STZ-induced diabetic mice; assay type: in vivo, mouse; details: diabetic Nrf2+/+ mice; 12.5 mg/kg SF or 50 mg/kg CA intraperitoneally every other day; vs untreated STZ
Experimental: Diabetes mouse model and treatments. […] Briefly, three weeks after STZ injections, fasting glucose levels (FGL, 4 h fast) were measured using the AlphaTRAK system (Abbott Laboratory, North Chicago, Ill.) and mice with a FGL higher than or equal to 250 mg/dL were considered diabetic and included in the study (see, e.g., FIG. 2A and FIG. 3A for a detailed timeline). The mice (n=5-8) were then allocated randomly to each of the indicated treatment groups and received corn oil (control), 12.5 mg/kg SF or 50 mg/kg CA intraperitoneally every two days until skin tissues were harvested.
After induction of diabetes using STZ, diabetic Nrf2^+/+ mice were intraperitoneally injected with corn oil (vehicle control), 12.5 mg/kg SF, or 50 mg/kg CA every other day for 1 week, then the wound surgery was performed and the treatment continued for 2 more weeks (FIG. 3A).

[2] = system: HaCaT cells; experiment: Cell growth (xCELLigence) of HaCaT cells; assay type: cell-based, human; details: 5 μmol/L SF or 20 μmol/L CA, up to 72 h
Experimental: Human immortalized keratinocytes HaCaT were obtained from the Arizona Cancer Center (see, e.g., Boukamp P, et al., J Cell Biol 106:761-771, 1988). Cells were grown in Dulbecco's modified Eagle's medium (DMEM) containing low glucose (LG, 5.5 mmol/L) and 10% fetal bovine serum (FBS) in an incubator at 37° C. with 5% CO2. For the experiments, the cells were starved in serum-free LG DMEM for 24 h, then either maintained in LG DMEM or switched to high glucose (HG, 25 mmol/L) DMEM for 2 days (see, e.g., Zheng H, et al., Diabetes 60:3055-3066, 2011; Lan C C, et al., Br J Dermatol 159:1103-1115, 2008). For the treatments, the cells were dosed with 5 μmol/L SF or 20 μmol/L CA.
siRNA transfections. […]
Reactive oxygen species (ROS) measurement, cell proliferation and apoptosis. ROS were measured in HaCaT cells using DCF. […] Then, 48 h later, the cells were switched into fresh medium containing 10 μg/mL DCF, incubated 30 min, and fluorescence intensity was measured by flow cytometry. The rate of cell proliferation was measured by two methods (see, e.g., Ren D, et al., Proc Natl Acad Sci USA 108:1433-1438, 2011): 1) detection of Ki67 using indirect immunofluorescence as described previously (see, e.g., Lau A, et al., Mol Cell Biol 30:3275-3285, 2010); and 2) using the xCELLigence system (Roche). […]

[3] = system: NRF2 pathway; experiment: Immunoblot and IHC of NRF2 and its target genes in wound skin tissues of STZ mice; assay type: in vivo, mouse; details: 12.5 mg/kg SF or 50 mg/kg CA i.p. every other day; for protein expression of NRF2 and its target genes HO-1, AKR1C1, and NQO1 (immunoblot): diabetic mouse skin tissue lysates; for NRF2 and HO-1 level by IHC: wound skin tissues of diabetic mice
Experimental: Diabetes mouse model and treatments. […] The STZ-induced diabetic model was previously described (see, e.g., Zheng H, et al., Diabetes 60:3055-3066, 2011) and only 8 week old male mice were included in this study. Briefly, three weeks after STZ injections, fasting glucose levels (FGL, 4 h fast) were measured using the AlphaTRAK system (Abbott Laboratory, North Chicago, Ill.) and mice with a FGL higher than or equal to 250 mg/dL were considered diabetic and included in the study (see, e.g., FIG. 2A and FIG. 3A for a detailed timeline). The mice (n=5-8) were then allocated randomly to each of the indicated treatment groups and received corn oil (control), 12.5 mg/kg SF or 50 mg/kg CA intraperitoneally every two days until skin tissues were harvested. One week after the treatments, the mice were anesthetized, their backs were shaved and cleaned. Two wounds were made with a sterile 6 mm skin biopsy punch (Health link, Jacksonville, Fla.) and covered with 3M Tegaderm pads. […] The tissues were collected using an 8 mm skin biopsy punch; one half was fixed in 10% buffered formalin and embedded in paraffin while the other half was used for protein extraction. […] Wounds and tissue collection were performed as described above.
Immunohistochemistry (IHC), immunoblot analyses, TGF-β1 immunoassay, and gelatin zymography. […] For IHC, antigen retrieval was performed by boiling in sodium citrate buffer (10 mM, pH 6.0) or EDTA buffer (1 mM, pH 8.0). After blocking endogenous peroxidase and non-specific binding, tissue sections were incubated with the indicated primary antibodies. Staining was performed using the Envision system HRP-DAB kit (DAKO North America, CA) according to the manufacturer's instructions.
For protein detection of mouse skin tissues were homogenized in lysis buffer (50 mM Tris-HCl buffer pH 7.4, 100 mM DTT, 2% SDS, 10% glycerol). Protein concentration was measured using Quant-iT Protein Assay (Invitrogen) and 150 μg of protein were resolved by SDS-PAGE and immunoblotting analyses with the indicated antibodies.
To explore the feasibility of pharmacologic activation of NRF2 in facilitating diabetic wound healing, sulforaphane (SF) and cinnamaldehyde (CA), two well-studied NRF2 activators, were tested for their ability to activate the NRF2-mediated antioxidant response in mouse skin tissues. After induction of diabetes using STZ, diabetic Nrf2^+/+ mice were intraperitoneally injected with corn oil (vehicle control), 12.5 mg/kg SF, or 50 mg/kg CA every other day for 1 week, then the wound surgery was performed and the treatment continued for 2 more weeks (FIG. 3A).

[4] = system: wound skin tissues; experiment: Apoptosis by TUNEL in wound skin tissues of STZ mice; assay type: in vivo, mouse
Description: Diabetes mouse model and treatments. Nrf2^+/+ and Nrf2^-/- C57BL/6 mice were described previously (see, e.g., Jiang T, et al., Diabetes 59:850-860, 2010) and were housed and handled in accordance with the University of Arizona Institutional Animal Care policies. The STZ-induced diabetic model was previously described (see, e.g., Zheng H, et al., Diabetes 60:3055-3066, 2011) and only 8 week old male mice were included in this study. Briefly, three weeks after STZ injections, fasting glucose levels (FGL, 4 h fast) were measured using the AlphaTRAK system (Abbott Laboratory, North Chicago, Ill.) and mice with a FGL higher than or equal to 250 mg/dL were considered diabetic and included in the study (see, e.g., FIG. 2A and FIG. 3A for a detailed timeline). […] Gross wound closure was quantified by ImageJ software, and wound healing was expressed as the percentage of the original wound area that had healed. […] ROS were measured in HaCaT cells using DCF. […] Then, 48 h later, the cells were switched into fresh medium containing 10 μg/mL DCF, incubated 30 min, and fluorescence intensity was measured by flow cytometry. […] For this, 8000 HaCaT cells/well were seeded in LG or HG media, with or without an NRF2 activator, and cell growth was monitored for 72 h. […]

| SMILES | blood glucose levels [1] | body weight [1] | inhibition of cell proliferation by HG (cell growth) [2] | protein expression of NRF2 and its target genes HO-1, AKR1C1, and NQO1 (immunoblot) [3] | NRF2 and HO-1 level by IHC [3] | apoptosis (TUNEL) [4] |
| --- | --- | --- | --- | --- | --- | --- |
| O=CC=Cc1ccccc1 [CA, Cinnamaldehyde] | failed to decrease blood glucose levels | reversed the body weight loss during the initial phase of diabetes | partly counteracted | upregulated | high level | reduced apoptosis to a lesser extent than in Con |
| C[S@@+]([O-])CCCCN=C=S [SF, L-sulforaphane] | failed to decrease blood glucose levels | reversed the body weight loss during the initial phase of diabetes | partly counteracted | upregulated | high level | reduced apoptosis to a lesser extent than in Con |
